Data on three compounds can be found in US7977326B2, “Supportive treatment of liver disease” (priority 2004, dated 2011).

SMILES strings stand for the structures. Where two headings read alike, the source gives them in different places.

Test [1] concerns piglet hepatic microsomal membranes. The test can be described thus: DCF activity in AAPH induced free radical release in microsomes (lipid peroxidation). Format: biochemical. On the set-up: DCF activity in AAPH induced free radical release: unit not given here. To be noted: for inhibition of membrane oxidation (reduction in DCF activity): 0-1000 μM, AAPH; for DCF activity in AAPH induced free radical release: one hour at 37° C. then one hour AAPH. On the procedure:
The protective effect of diltiazem on cell membranes was examined in piglet hepatic microsomal membranes obtained from the livers of 3-week-old female piglets. […] Following incubation the microsomal mixture was centrifuged at 2000 rpm to remove excess AAPH and diltiazem. The extent of reactive oxygen species mediated lipid peroxidation in the microsomal membranes was then measured employing the fluorescence market dichlorofluoresen (DCF, 10μ for 15 min). Image analysis.

Test [2] shares this test system. The test can be described thus: Parallel studies using H2O2 as a free radical generator. The format is biochemical.
For test [3], the system named is Hepatic liver microsomes. The settings on record: for Fluorescence Activity: 1 mM AAPH, n=6. On the procedure:
Hepatic liver microsomes were obtained from 4 healthy piglets as described previously. Microsomes were stored at −80° C. until required for study. Concentration of microsomes was 1 mg/ml. Diltiazem concentrations were 50 and 500 μM, Thiamine concentrations tested included 10, 50, and 100 μM. Free radical generator AAPH was 1 mM. The study detected hepatic lipid peroxidation products by analyzing the fluorescence activity of the dye DCFH by a plate reader as described in our previous report.
DCF-DA was treated with 2M NaOH and MeOH for 2 hours and after which time it was neutralized with HCl to yield the intracellular form of DCFH as described by the manufacturer. Hepatic microsomes were diluted to 1 mg/ml using Phosphate Buffered Saline (PBS). Microsomes were incubated with various concentrations of diltiazem, thiamine or in combination at 37° C. for 1 hour. Control microsomes were incubated with PBS (no drug treatment). Microsomal mixture was then incubated with 1 mM AAPH for 1 hour to initiate free radical induced lipid peroxidation for 1 hour at 37° C. Following incubation, the microsomal mixture was centrifuged at 2000 rpm using 5000 MWCO ultracentrifuge tubes and the procedure repeated twice with PBS to remove any AAPH and drug. Lipid peroxidized microsomes were incubated with 10 μM DCFH for 15 minutes and fluorescence activity recorded using a fluorescence plate reader.

Test [4] deals with microvascular blood flow within the liver. The settings on record: in vivo; cited from earlier work.
For test [5], the system named is patients with Hepatitis B. The settings on record: cited from earlier work.

`COc1ccc([C@@H]2Sc3ccccc3N(CCN(C)C)C(=O)[C@@H]2OC(C)=O)cc1` (relative stereo) [Diltiazem, cis-(+)-3-(acetyloxy)-5-[2-(dimethylamino)ethyl]-2,3-dihydro-2-(4-methoxyphenyl)-1,5-benzothiazepin-4(5H)-one]: the “inhibition of membrane oxidation (reduction in DCF activity)” value in test [1] is reported as “dose-dependent inhibition of membrane oxidation”. Besides, the “DCF activity in AAPH induced free radical release” value in test [1] (5 μM) came to 44501; in test [1] (50 μM), 38293; in test [1] (250 μM), 35148; in test [1] (500 μM), 31498; in test [1] (1000 μM), 27258. In test [2], the “protection against H2O2 as free radical generator” value is listed as “not protective”. The “Fluorescence Activity” value was 36492 in test [3] (Diltiazem 50 μM) and 32271 in test [3] (Diltiazem 500 μM). For the same compound, in test [4], the “effect on microvascular blood flow within the liver” value is on record as “no effect”.

In the case of `COc1ccc([C@H]2Sc3ccccc3N(CCN(C)C)C(=O)[C@H]2OC(C)=O)cc1` [L-diltiazem], the “inhibition of membrane oxidation (reduction in DCF activity)” value in test [1] is on record as “not”. In addition, the “DCF activity in AAPH induced free radical release” value worked out at 52799 in test [1] (5 μM); 49949 in test [1] (50 μM); 51120 in test [1] (250 μM); 53182 in test [1] (500 μM); 49937 in test [1] (1000 μM).

Regarding `Cc1ncc(C[n+]2csc(CCO)c2C)c(N)n1` [Thiamine, thiamine], the “Fluorescence Activity” value in test [3] (Thiamine 10 μM) came out at 31113; in test [3] (Thiamine 50 μM) it was 27265; in test [3] (Thiamine 100 μM), 23477. Also, the “effect on fluorescence activity (free radical release), in words” value in test [3] (thiamine added to microsomes) is on record as “reduced the fluorescence activity”. The “effect on liver function” value in test [5] is listed as “improve liver function”.
